Results from ChEMBL document CHEMBL6087462, “Cuminaldehyde Potentiates Antiproteolytic Peptide Efficacy via Parallel Pathways of Enhanced Inner Membrane-Damaging Activity and Inhibition of Bacterial Energy Metabolism” (J Med Chem, 2025).

Tests used:
[1] = Subacute toxicity in C57BL/6 mouse assessed as change in spleen weight at 125 mg/kg, po administered for 3 days; type: organism-based; conditions: in vivo, 72 h, time 3 day
[2] = Subacute toxicity in C57BL/6 mouse assessed as change in ALT level at 125 mg/kg, po administered for 3 days; type: organism-based; conditions: in vivo, 72 h, time 3 day
[3] = Subacute toxicity in C57BL/6 mouse assessed as change in liver weight at 125 mg/kg, po administered for 3 days; type: organism-based; conditions: in vivo, 72 h, time 3 day
HEK-293T = assay: Cytotoxicity against human HEK293T cells assessed as cell death incubated for 4 hrs by MTT assay; type: toxicity, cell-based
[4] = Subacute toxicity in C57BL/6 mouse assessed as change in BUN level at 125 mg/kg, po administered for 3 days; type: organism-based; conditions: in vivo, 72 h, time 3 day
[5] = Cytotoxicity against porcine IPEC-J2 cells assessed as cell death incubated for 4 hrs by MTT assay; type: toxicity, cell-based, Sus scrofa; conditions: pig, ipec-j2, 4 h
[6] = Acute toxicity in C57BL/6 mouse assessed as ruffled fur at 80 mg/kg, po measured for 5 days; type: organism-based; conditions: in vivo, 120 h, time 5 day
[7] = Acute toxicity in C57BL/6 mouse assessed as animal survival at 40 mg/kg, po measured for 5 days; type: organism-based; conditions: in vivo, 120 h, time 5 day
[8] = Subacute toxicity in C57BL/6 mouse assessed as reduction in body weight loss at 125 mg/kg, po administered for 3 days; type: organism-based; conditions: in vivo, 72 h, time 3 day
[9] = Acute toxicity in C57BL/6 mouse assessed as animal survival at 80 mg/kg, po measured for 5 days; type: organism-based; conditions: in vivo, 120 h, time 5 day
[10] = Acute toxicity in C57BL/6 mouse assessed as lethal dose measured for 5 days; conditions: in vivo, time 5 day
RAW264.7 = assay: Cytotoxicity against mouse RAW264.7 cells assessed as cell death incubated for 4 hrs by MTT assay; type: toxicity, cell-based; conditions: raw264.7, 4 h
[11] = Subacute toxicity in C57BL/6 mouse assessed as change in CREA level at 125 mg/kg, po administered for 3 days; type: organism-based; conditions: in vivo, 72 h, time 3 day
[12] = Subacute toxicity in C57BL/6 mouse assessed as change in kidney weight at 125 mg/kg, po administered for 3 days; type: organism-based; conditions: in vivo, 72 h, time 3 day

Which results are given for CC[C@H](C)[C@H](NC(=O)[C@@H](NC(=O)[C@@H](CCCNC(=N)N)NC(=O)[C@H](C)NC(=O)[C@H](C)NC(=O)[C@@H](N)Cc1cccc2ccccc12)[C@@H](C)CC)C(=O)N[C@@H](CC(C)C)C(=O)N[C@H](CCCNC(=N)N)C(=O)N[C@@H](Cc1c[nH]c2ccccc12)C(=O)N[C@H](CCCNC(=N)N)C(=O)N[C@@H](Cc1ccccc1)C(=O)N[C@@H](CCCNC(=N)N)C(=O)O?
Activity [1]: Non-toxic; Activity [2]: Non-toxic; Activity [3]: Non-toxic; Activity (HEK-293T): < 50%; Activity [4]: Non-toxic; Activity [5]: < 50%; Activity [6]: Non-toxic; Activity [7]: Non-toxic; Activity [8]: Non-toxic; Activity [9]: Non-toxic; LD50 at 120 h [10]: 1010 mg/kg; Activity (RAW264.7): < 50%; Activity [11]: Non-toxic; Activity [12]: Non-toxic
